Laboratory results as given in US12059565B1, “Methods and systems for modulating unconsciousness or anesthesia in a subject” (priority 2019, dated 2024).

What was measured:
[1] = tested on: alpha2 receptors; settings: cited from earlier work
[2] = healthy volunteers; conservative estimate; cited from earlier work
[3] = tested on: EEG SWA / behavioral responsiveness; settings: during TCI dexmedetomidine sedation; expected, based on Sleigh and colleagues
Source text: Participants will undergo three arousals during this phase of the experiment: one during in-phase stimulation, one during anti-phase stimulation, and one during sham stimulation (FIG. 13). The order of CLASS conditions under which a participant will be aroused is the same as in Phase 2, which is balanced across participants. Each arousal will be preceded by at least three consecutive minutes of acoustic stimulation, which will continue during the arousal procedure. The arousal procedure consists of the same ramping thermal stimulation used during pre-sedation QST. The cardinal difference between pre-sedation QST and arousal QST is that one of the investigators will be tasked with pressing the button to end the thermal ramp instead of the sedated participant. The investigator will end the arousal protocol as soon as they observe purposeful behavior in response to the thermal stimulation. The investigator will also be able to terminate the thermal stimulation at their clinical discretion. Vital signs, EEG, and video recording will allow review of the time of arousal during post-hoc analysis. […] Assessors of arousal will be blinded to the acoustic stimulation conditions. Once a participant has been definitively aroused, thermal stimulation will cease. […]

[4] = infused for several hours to days at 1.5 mcg/kg/hr, critically ill patients; cited from earlier work
[5] = target effect site concentrations of 2.0-4.0 ng/ml, most participants

Compound: Cc1cccc([C@H](C)c2cnc[nH]2)c1C [dexmedetomidine]
- most common adverse events ([1]; dexmedetomidine infusions): bradycardia, hypotension and hypertension
- haemodynamic effect at low plasma concentrations ([1]; plasma concentration <1 ng/ml, agonism at alpha2 receptors in the central nervous system): decrease in peripheral vascular resistance and heart rate
- haemodynamic effect at higher plasma concentrations ([1]; plasma concentration >4 ng/ml, agonism at alpha2 receptors on vascular smooth muscle): hypertension and worsening reflex bradycardia
- HR [1, 5]: > 75 % from baseline
- MAP [1, 5]: near-baseline
- level of sedation [1, 5]: moderately sedated
- equilibration constant (t1/2 ke0) [2]: 3 min
- time for EEG SWA to return to pre-arousal levels [3]: ≤ 10 min
- time to return to a state of unresponsiveness after thermal arousal [3]: ≤ 60 s
- steady-state concentration [4]: 2.5 to 3.0 ng/mL
